For data set [1], the target named is T1, Acetyl-CoA Hydrolase from S. cerevisiae (Saccharomyces cerevisiae, UniProt P32316).
T1 sequence (P32316 1-526): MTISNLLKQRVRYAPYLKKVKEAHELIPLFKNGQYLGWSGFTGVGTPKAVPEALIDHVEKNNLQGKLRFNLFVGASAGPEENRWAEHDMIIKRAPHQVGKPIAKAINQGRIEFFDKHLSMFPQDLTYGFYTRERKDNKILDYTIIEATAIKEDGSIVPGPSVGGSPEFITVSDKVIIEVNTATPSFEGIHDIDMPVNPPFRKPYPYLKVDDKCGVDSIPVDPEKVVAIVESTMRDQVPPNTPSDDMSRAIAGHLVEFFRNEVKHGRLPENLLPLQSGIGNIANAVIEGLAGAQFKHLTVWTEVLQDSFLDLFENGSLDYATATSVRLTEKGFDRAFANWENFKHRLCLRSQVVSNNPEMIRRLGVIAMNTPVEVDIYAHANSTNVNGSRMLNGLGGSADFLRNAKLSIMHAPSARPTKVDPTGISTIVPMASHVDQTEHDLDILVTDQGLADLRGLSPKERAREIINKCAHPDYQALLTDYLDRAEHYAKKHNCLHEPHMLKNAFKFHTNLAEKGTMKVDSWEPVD
The data set is described as follows: biochemical.

For data set [2], the system named is mitochondrial enzyme from hamster brown fat. The conditions noted are these: cited from earlier work.
Data set [3] concerns the target T1, Acetyl-CoA Hydrolase from S. cerevisiae. The data set is described as follows: Substrate specificity, colorimetric assay (DNTB, A412). In kind it is biochemical. The conditions noted are these: read-out: Relative Activity (%).
Data set [4] has as its system mitochondrial acetyl-CoA hydrolase. The note with it: cited from earlier work.
In data set [5] the target is T2, soluble cytosolic acetyl-CoA hydrolase found in rat liver (Rattus norvegicus, UniProt Q99NB7).
T2 construct: host or cells: rat liver cytoplasm (Prass et al. 1980; Soling et al. 1985)
T2 sequence (Q99NB7 whole entry): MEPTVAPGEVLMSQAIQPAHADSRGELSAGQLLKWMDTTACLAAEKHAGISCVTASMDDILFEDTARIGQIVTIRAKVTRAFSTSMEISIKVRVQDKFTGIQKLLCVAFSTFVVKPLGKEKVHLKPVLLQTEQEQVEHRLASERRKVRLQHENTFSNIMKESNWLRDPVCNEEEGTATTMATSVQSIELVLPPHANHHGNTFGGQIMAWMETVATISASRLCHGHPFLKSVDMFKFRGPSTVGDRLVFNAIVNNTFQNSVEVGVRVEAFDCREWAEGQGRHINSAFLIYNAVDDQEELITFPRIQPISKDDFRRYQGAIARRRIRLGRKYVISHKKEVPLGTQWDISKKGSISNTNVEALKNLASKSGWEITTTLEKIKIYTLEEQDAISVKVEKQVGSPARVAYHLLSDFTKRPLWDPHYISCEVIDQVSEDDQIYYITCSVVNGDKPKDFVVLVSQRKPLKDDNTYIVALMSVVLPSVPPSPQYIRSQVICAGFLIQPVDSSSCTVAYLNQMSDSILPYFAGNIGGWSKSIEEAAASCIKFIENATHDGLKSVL
The conditions noted are these: rat liver cytoplasmic, cold-labile enzyme; cited from earlier work.

Data set [6] concerns the target Human ACTH (1-24) (human) (UniProt P01189).
Substrate in data set [7]: CC(=O)SCCNC(=O)CCNC(=O)[C@H](O)C(C)(C)COP(=O)(O)OP(=O)(O)OC[C@H]1O[C@@H](n2cnc3c(N)ncnc32)[C@H](O)[C@@H]1OP(=O)(O)O
The data set is described as follows: purified protein, by the assay type. The note with it: other: substrate acetyl-CoA; Lineweaver-Burk plot; pH 7.4; 30.0 °C.

Where [8] appears, read: pH 7.4, read-out: Enzyme Activity (%).

Entries after “also recorded” stand apart in the source; their conditions may differ.

What is called Km is the substrate concentration at which the rate is half of its maximum. On to `CC(=O)SCCNC(=O)CCNC(=O)[C@H](O)C(C)(C)COP(=O)(O)OP(=O)(O)OC[C@H]1O[C@@H](n2cnc3c(N)ncnc32)[C@H](O)[C@@H]1OP(=O)(O)O` [Acetyl-CoA, acetyl coenzyme A], for which the “effect on yeast enzyme activity (in words)” value in data set [1] is given as “inhibited most effectively”. Besides, in data set [1] (setting [8]), the remaining activity at 100 µM turned out to be 66%, the remaining activity at 1000 µM was 28% and the remaining activity at 5000 µM was 5%. Further, in data set [1] (substrate acetyl-CoA, Lineweaver-Burk plot, read-out: apparent Km), the Km is 62 µM. Also, the Km in data set [2] is 51 µM. In addition, the activity at 250 µM in data set [3] was 100%.

Regarding `Nc1ncnc2c1ncn2[C@@H]1O[C@H](COP(=O)(O)OP(=O)(O)OP(=O)(O)O)[C@@H](O)[C@H]1O` [ATP], in data set [1], the “effect on yeast enzyme activity (in words)” value was “not affected”. In data set [1] (setting [8]), the remaining activity at 100 µM was found to be 101%, the remaining activity at 1000 µM is 99% and the remaining activity at 10000 µM was found to be 96%. Further, the “effect on enzyme (in words)” value in data set [4] is on record as “not activated; also recorded: not affected”.

In general, inhibition refers to the change of the read-out against control, counted positive when it falls. With `CC(C)(COP(=O)(O)OP(=O)(O)OC[C@H]1O[C@@H](n2cnc3c(N)ncnc32)[C@H](O)[C@@H]1OP(=O)(O)O)[C@@H](O)C(=O)NCCC(=O)NCCS` [CoASH, coenzyme A], in data set [1], the “effect on yeast enzyme activity (in words)” value is given as “only weakly inhibited”. Besides, in data set [1] (read-out: inhibition of hydrolysis of [1-14C] acetyl-CoA), the inhibition at 25 µM is under 30%. The “effect on enzyme (in words)” value was “only weakly inhibited; also recorded: weak inhibitor” in data set [4] and “inhibited; also recorded: strong product inhibitor” in data set [5].

For `Nc1ncnc2c1ncn2[C@@H]1O[C@H](COP(=O)(O)OP(=O)(O)O)[C@@H](O)[C@H]1O` [ADP], the “effect on yeast enzyme activity (in words)” value in data set [1] is “not affected”. Besides, in data set [1] (setting [8]), the remaining activity at 100 µM turned out to be 98%, the remaining activity at 1000 µM is 94% and the remaining activity at 10000 µM worked out at 91%. The “effect on enzyme (in words)” value in data set [4] is reported as “not inhibited; also recorded: not affected”. Moreover, the “effect on enzyme (in words)” value in data set [5] is listed as “inhibited”.

For “yeast N-alpha-acetyltransferase (enzyme)”, in data set [6], the transfer of [3H] acetyl group from [3H] acetyl-CoA to ACTH (1-24), units stood at 63300 units.

For `NC(=O)C1=CN([C@@H]2O[C@H](COP(=O)(O)OP(=O)(O)OC[C@H]3O[C@@H](n4cnc5c(N)ncnc54)[C@H](O)[C@@H]3O)[C@@H](O)[C@H]2O)C=CC1` [βNADH], in data set [1], the “effect on enzyme activity (in words)” value is on record as “appreciably decreased enzyme activity” and the “effect on yeast enzyme activity (in words)” value was “inhibited”. In data set [1] (setting [8]), the remaining activity at 100 µM turned out to be 83%, the remaining activity at 1000 µM was 69% and the remaining activity at 10000 µM came to 46%. The “effect on enzyme (in words)” value in data set [4] is on record as “inhibited”.

Take `Nc1nc2c(ncn2[C@@H]2O[C@H](COP(=O)(O)OP(=O)(O)O)[C@@H](O)[C@H]2O)c(=O)[nH]1` [GDP]: the “effect on enzyme (in words)” value in data set [4] is recorded as “not inhibited”; in data set [5] it was “inhibited”.

B1: Acetyl-CoA Hydrolase from S. cerevisiae (Saccharomyces cerevisiae S288C) (protein)
chain: MTISNLLKQRVRYAPYLKKVKEAHELIPLFKNGQYLGWSGFTGVGTPKAVPEALIDHVEKNNLQGKLRFNLFVGASAGPEENRWAEHDMIIKRAPHQVGKPIAKAINQGRIEFFDKHLSMFPQDLTYGFYTRERKDNKILDYTIIEATAIKEDGSIVPGPSVGGSPEFITVSDKVIIEVNTATPSFEGIHDIDMPVNPPFRKPYPYLKVDDKCGVDSIPVDPEKVVAIVESTMRDQVPPNTPSDDMSRAIAGHLVEFFRNEVKHGRLPENLLPLQSGIGNIANAVIEGLAGAQFKHLTVWTEVLQDSFLDLFENGSLDYATATSVRLTEKGFDRAFANWENFKHRLCLRSQVVSNNPEMIRRLGVIAMNTPVEVDIYAHANSTNVNGSRMLNGLGGSADFLRNAKLSIMHAPSARPTKVDPTGISTIVPMASHVDQTEHDLDILVTDQGLADLRGLSPKERAREIINKCAHPDYQALLTDYLDRAEHYAKKHNCLHEPHMLKNAFKFHTNLAEKGTMKVDSWEPVD
Take B1: the Michaelis-Menten constant (Km) in data set [7] was found to be 62 µM.

Source of the values: US5487990A (The General Hospital Corporation, priority 1992, dated 1996).
